Active and inactive are the calls of the source. The rule behind the calls is not given here.
What was measured:
[1] = target: T1, Tyrosinase (Homo sapiens) (UniProt P14679); assay: Inhibition of tyrosinase in human A375 cells assessed as effect on alpha-MSH-induced melanin formation at 25 uM after 24 hrs relative to control; type: cell-based; set-up: scale not given: the % may be the effect or the level left
T1 sequence (whole entry): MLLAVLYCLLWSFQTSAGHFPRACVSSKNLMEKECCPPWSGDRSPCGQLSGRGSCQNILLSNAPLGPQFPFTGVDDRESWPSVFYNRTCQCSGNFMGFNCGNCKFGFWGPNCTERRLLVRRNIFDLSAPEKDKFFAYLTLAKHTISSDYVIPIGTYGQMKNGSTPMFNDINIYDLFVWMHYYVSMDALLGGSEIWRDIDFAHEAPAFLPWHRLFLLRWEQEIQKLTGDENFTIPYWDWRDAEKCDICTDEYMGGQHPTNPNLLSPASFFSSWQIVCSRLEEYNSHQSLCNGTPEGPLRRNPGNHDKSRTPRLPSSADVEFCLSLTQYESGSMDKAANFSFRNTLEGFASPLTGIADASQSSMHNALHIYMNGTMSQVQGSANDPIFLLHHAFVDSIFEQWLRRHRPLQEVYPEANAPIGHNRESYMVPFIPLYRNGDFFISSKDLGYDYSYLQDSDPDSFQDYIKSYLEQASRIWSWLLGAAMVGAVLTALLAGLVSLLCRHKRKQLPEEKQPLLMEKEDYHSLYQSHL

[2] = target: T2, Tyrosinase (Mus musculus) (UniProt P11344); assay: Inhibition of tyrosinase in mouse B16 cells assessed as effect on alpha-MSH-induced melanin formation at 25 uM after 24 hrs relative to control; type: cell-based; set-up: scale not given: the % may be the effect or the level left
T2 sequence (whole entry): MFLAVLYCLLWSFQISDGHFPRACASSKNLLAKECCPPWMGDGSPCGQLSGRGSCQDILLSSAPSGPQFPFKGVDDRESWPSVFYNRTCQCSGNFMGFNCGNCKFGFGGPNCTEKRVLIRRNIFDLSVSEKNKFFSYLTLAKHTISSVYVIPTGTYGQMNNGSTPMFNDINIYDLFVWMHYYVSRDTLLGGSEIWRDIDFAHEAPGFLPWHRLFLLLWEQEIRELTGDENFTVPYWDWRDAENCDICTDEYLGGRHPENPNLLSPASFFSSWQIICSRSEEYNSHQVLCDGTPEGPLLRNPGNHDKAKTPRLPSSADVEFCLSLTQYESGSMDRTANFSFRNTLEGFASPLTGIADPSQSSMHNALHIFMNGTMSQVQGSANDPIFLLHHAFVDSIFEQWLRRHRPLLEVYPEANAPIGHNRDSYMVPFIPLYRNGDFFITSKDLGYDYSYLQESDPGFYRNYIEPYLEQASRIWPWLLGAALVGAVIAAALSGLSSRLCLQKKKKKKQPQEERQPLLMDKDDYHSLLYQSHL

[3] = Growth inhibition of human A375 cells at 25 uM after 48 hrs by SRB assay relative to control; type: cell-based, A-375; settings: read-out: GI
[4] = Growth inhibition of mouse B16 cells at 25 uM after 48 hrs by SRB assay relative to control; type: cell-based; settings: read-out: GI
[5] = target: T1, Tyrosinase (Homo sapiens); assay: Inhibition of tyrosinase in human A375 cells at 25 uM using L-DOPA as substrate after 24 hrs by spectrophotometric method; type: cell-based
[6] = target: T2, Tyrosinase (Mus musculus); assay: Inhibition of tyrosinase in mouse B16 cells at 25 uM using L-DOPA as substrate after 24 hrs by spectrophotometric method; type: cell-based
[7] = Antioxidant activity assessed as ABTS radical scavenging activity at 25 uM after 15 mins; type: functional; set-up: reference not given here
A-375 [8] = assay: Inhibition of alpha-MSH-induced TRP-1 expression in human A375 cells at 25 uM after 24 hrs by Western blot method; type: functional, cell-based
A-375 [9] = assay: Inhibition of alpha-MSH-induced TRP-2 expression in human A375 cells at 25 uM after 24 hrs by Western blot method; type: functional, cell-based
A-375 [10] = assay: Inhibition of alpha-MSH-induced reactive oxygen species generation in human A375 cells at 25 uM after 4 hrs by DCFDA staining-based fluorescence assay; type: functional, cell-based

C=CCOc1ccc(CCc2cc(OCC=C)cc(OCC=C)c2)cc1
Activity [1]: 88.1% | Activity [2]: 96.5% | inhibition at 48 h, 25 µM [3]: 6.83% | inhibition at 48 h, 25 µM [4]: 1.31% | inhibition [5]: Active | inhibition [6]: inactive | Activity [7]: 119 mg.equiv

O=C(Oc1ccc(CCc2cc(OC(=O)c3ccccc3)cc(OC(=O)c3ccccc3)c2)cc1)c1ccccc1
Activity [1]: 85.2% | Activity [2]: 87% | inhibition at 48 h, 25 µM [3]: 4.55% | inhibition at 48 h, 25 µM [4]: 4.92%

CCCOc1ccc(CCc2cc(OCCC)cc(OCCC)c2)cc1
Activity [1]: 85.1% | Activity [2]: 94.7% | inhibition at 48 h, 25 µM [3]: 3.36% | inhibition at 48 h, 25 µM [4]: 1.34% | Activity [7]: 30.2 mg.equiv

COc1ccc(C(=O)Oc2ccc(CCc3cc(OC(=O)c4ccc(OC)cc4)cc(OC(=O)c4ccc(OC)cc4)c3)cc2)cc1
Activity [1]: 104% | Activity [2]: 94.7% | inhibition at 48 h, 25 µM [3]: 6.05% | inhibition at 48 h, 25 µM [4]: 5.12%

C=CC(=O)Oc1ccc(CCc2cc(OC(=O)C=C)cc(OC(=O)C=C)c2)cc1
Activity [1]: 50.5% | Activity [2]: 76% | inhibition at 48 h, 25 µM [3]: 15.6% | inhibition at 48 h, 25 µM [4]: 13.9% | inhibition [5]: Active | inhibition [6]: Active | inhibition (A-375 [8]): Active | inhibition (A-375 [9]): Active | Activity [7]: 15.9 mg.equiv | inhibition (A-375 [10]): Active

O=C(OCc1ccccc1)Oc1ccc(CCc2cc(OC(=O)OCc3ccccc3)cc(OC(=O)OCc3ccccc3)c2)cc1
Activity [1]: 92.4% | Activity [2]: 89.9% | inhibition at 48 h, 25 µM [3]: 6.35% | inhibition at 48 h, 25 µM [4]: 5.12%

O=C(Oc1ccc(CCc2cc(OC(=O)c3ccc(Cl)cc3)cc(OC(=O)c3ccc(Cl)cc3)c2)cc1)c1ccc(Cl)cc1
Activity [1]: 93.4% | Activity [2]: 99.2% | inhibition at 48 h, 25 µM [3]: 21.5% | inhibition at 48 h, 25 µM [4]: 5.26%

O=C(Oc1ccc(CCc2cc(OC(=O)C3CCCC3)cc(OC(=O)C3CCCC3)c2)cc1)C1CCCC1
Activity [1]: 97.2% | Activity [2]: 95.9% | inhibition at 48 h, 25 µM [3]: 14.3% | inhibition at 48 h, 25 µM [4]: 9.69%

CC(C)(C)C(=O)Oc1ccc(CCc2cc(OC(=O)C(C)(C)C)cc(OC(=O)C(C)(C)C)c2)cc1
Activity [1]: 94.6% | Activity [2]: 93% | inhibition at 48 h, 25 µM [3]: 9.53% | inhibition at 48 h, 25 µM [4]: 6.91%

O=C1O[C@H]([C@@H](O)CO)C(O)=C1O [ASCORBIC ACID]
Activity [1]: 75% | Activity [2]: 83.7% | inhibition at 48 h, 25 µM [3]: 8.63% | inhibition at 48 h, 25 µM [4]: 4.94% | inhibition (A-375 [8]): Active | inhibition (A-375 [9]): Active

CCCC(=O)Oc1ccc(CCc2cc(OC(=O)CCC)cc(OC(=O)CCC)c2)cc1
Activity [1]: 98.9% | Activity [2]: 96.2% | inhibition at 48 h, 25 µM [3]: 17.9% | inhibition at 48 h, 25 µM [4]: 4.81% | inhibition [5]: Active | inhibition [6]: inactive | Activity [7]: 94.3 mg.equiv

Oc1ccc(CCc2cc(O)cc(O)c2)cc1 [DIHYDRORESVERATROL]
Activity [1]: 78% | Activity [2]: 78.3% | inhibition at 48 h, 25 µM [3]: 6.42% | inhibition at 48 h, 25 µM [4]: 5.2% | inhibition (A-375 [8]): Active | inhibition (A-375 [9]): Active | Activity [7]: 4970 mg.equiv | inhibition (A-375 [10]): Active

Oc1ccc(/C=C/c2cc(O)cc(O)c2)cc1 [RESVERATROL]
Activity [1]: 80.4% | Activity [2]: 80.2% | inhibition at 48 h, 25 µM [3]: 9.79% | inhibition at 48 h, 25 µM [4]: 13.1% | inhibition (A-375 [8]): Active | inhibition (A-375 [9]): Active | inhibition (A-375 [10]): Active

Reference: ChEMBL document CHEMBL4138192, “Design, synthesis and evaluation of novel dihydrostilbene derivatives as potential anti-melanogenic skin-protecting agents” (Eur J Med Chem, 2018)
